The text below walks through data of patent US20110166066A1, “CATESTATIN (CST) AND ITS VARIANTS FOR TREATMENT OF CARDIOVASCULAR AND METABOLIC DISORDERS” (priority 2008, published 2011).

No end group written: not given here.

In experiment [1] the test system is WT and Chga knockout (KO) mice. The experiment in a line: Plasma catecholamine assay. It is filed as in vivo. The note with it: CST 40 μg/g bw ip for 30 min. The protocol: Catecholamine assay following immobilization stress: Mice were anesthetized by inhalation of “Isoflurane, USP” and blood was collected from the left ventricle in potassium EDTA tubes. […] Plasma catecholamine was measured by HPLC connected to an electrochemical detector (Waters 600E Multisolvent Delivery system and Waters 2465 Electrochemical Detector, MA) in a group of restraint mice (non-telemetered). Separation was performed on an Atlantis dC18 column (2.1×150 mm, 3 μm) from Waters. The mobile phase (0.15 ml/min) consisted of phosphate-citrate buffer and 2.2% N, N-Dimethylacetamide and acetonitrile at 95:5 (V/V). An internal standard 3,4-Dihydroxybenzylamine (DHBA, 1 ng) and an antioxidant sodium meta-bisulfite (final concentrations of 0.125 mM) were added to 0.25 ml of plasma. Following the addition of 15 mg of alumina (Aluminium oxide, Activity Grade: Super I, Type WA-4, Sigma-Aldrich, PA), the pH of the solution was raised to pH 8.6 by adding Tris buffer (0.96 M Tris, 50 mM EDTA, pH 8.69). Following a 30 min incubation and centrifugation (5000 rpm, 5 min), the supernatant was discarded and the beads were washed with water. The catecholamine was eluted with […] of 0.1 N HCl supplemented with 0.1 mM sodium meta-bisulfite. The data were analyzed using Empower software. Catecholamine levels were normalized with the recovery of internal standard.

Experiment [2] concerns Langendorff perfused rat heart. The experiment in a line: Isoproterenol stimulated Langendorff heart preparations. The note with it: ISO 0.1 nM to 1 μM; WT-CST 33 and 110 nM, G364S-CST 200 nM, P370L-CST 165 nM.
The test system of the next experiment is C57/BL/6J mice cornea. Description: Cornea neovascularisation assay. The note with it: pellet 500 ng, day 7. Type of experiment: in vivo. As to the method: Cornea Neovascularisation Assay. Pellets containing 500 ng Catestatin were implanted in C57/BL/6J mice (age of 8 weeks) as described (36). On postoperative day 7 mice received an intravenous injection of 500 μg BS1 lectin conjugated to FITC (Vector Laboratories). After euthanasia, enucleated eyes were fixed in 1% paraformaldehyde, corneas dissected and examined by fluorescence microscopy.

The subject of another experiment is ERK1/2. Description: Immunoblot of phosphorylated ERK1/2 in WT-CST perfused hearts. Further details: species or system rat. The note with it: 110 nM. As to the method: (§1) Cardiac signaling—Hearts were perfused with or without 110 nM WT-Cts as before. At the end of experiment hearts were snap frozen under liquid nitrogen and homogenized with 1 ml of ice cold 0.2 M sucrose, Tris maleate (pH 7.0) buffer supplemented with 2 mM EDTA, pH 8.0, 1 mM sodium orthovanadate, 10 mM sodium pyrophosphate, 1 mM phenylmethylsulfonyl fluoride, 10 μg/ml leupeptin, 10 μg/ml aprotinin and 0.1 mM 3-isobutyl-1-methylxanthine. SR membrane fractions were isolated from cytosolic proteins as described before (27). Protein content was determined by Bradford assay (BIO-RAD) and 100 μg of cytosolic protein was subjected to SDS-PAGE immunoblot analysis for phosphorylated-ERK, total ERK (P-ERK and T-ERK; Santa Cruz, Calif.). […]
(§2) Statistics—Data are expressed as the mean±SEM. Curve fitting was accomplished in the program Kaleidagraph (Synergy Software, Reading, Pa.). […] For analysis of phosphorylated proteins, levels were quantified using Bio-Rad QuantifyOne and volumes of phosphorylated proteins were divided by the levels of non-phosphorylated proteins to calculate fold activation. Stimulation of protein activity was expressed as fold increase over vehicle-treated control. The means and S.E.M. were calculated for each treatment. […]

The subject of experiment [3] is WT and Chga knockout (KO) mice. The experiment in a line: Response to PE or SNP and baroreflex sensitivity in unconscious mice. Type of experiment: in vivo. The note with it: KO mice, CST 40 μg/g bw iv. The protocol:
Unconscious mice. Surgical procedures for hemodynamic measurements: Hemodynamic evaluation in both WT and KO mice was performed under general anesthesia [ketamine (100 mg/kg) and xylazine (2.5 mg/kg)] while connected to a ventilator. LV pressure was monitored by Millar micromanometer catheter of size 1.4 French (0.46 mm; Millar Instruments, Houston, Tex.); it was inserted into the LV where phasic and mean pressure was continuously monitored (Gould, Cleveland, Ohio). A venous catheter (MicroRenathane tube MRE-033; Braintree Laboratories, Braintree, Mass.) is implanted on right femoral vein for injection of peptide and other reagents. All physiologic signals were acquired by WINDAQ (Dataq Instruments, Akron, Ohio) and analyzed by BP-Analysis software (developed for own laboratory).
Assessment of baroreflex sensitivity (BRS): BRS (in milliseconds per mmHg) was assessed by both high-pressure [phenylephrine (PE) bolus] and low-pressure [sodium nitroprusside (SNP) bolus] stimuli in unconscious mice. Although conscious animals provide optimal physiological data, a host of undesirable signals are triggered by physical activities, and sleep cycle alterations in behavioral state. Therefore, we have chosen to conduct the experiments in unconscious mice to avoid some of the pitfalls encountered in awake animals. The absolute changes of HR in response to changes in SBP induced by PE or SNP were subjected to linear regression analysis to determine BRS. To test the effect of CST on BRS in KO mice, CST was injected (40 μg/g bw iv) 30 min before the injection of PE or SNP through the catheter implanted into the femoral vein.
BRS to high-pressure stimulus. High pressure BRS was evaluated by recording diminution of HR in response to PE-induced hypertension. Changes in SBP and HR were recorded continuously for 0.5 min after a bolus injection of PE (0.005 μg/g bw iv). This dose was selected from a preliminary dose-response study (0.001-0.05 μg/g bw iv).
BRS to low-pressure stimulus. This was evaluated by recording increments in HR in response to SNP-induced fall in BP. Changes in SBP and HR were recorded continuously for 0.5 min after a bolus injection of SNP (0.05 μg/g bw iv). This dose was selected from a preliminary dose-response study (0.01-0.1 μg/g bw iv).

A further experiment deals with GSK-3β Ser9. Description: Immunoblot of phosphorylated GSK-3β in WT-CST perfused hearts. Also on record: species or system rat. As to conditions: 110 nM. As to the method:
as §1, §2

A further experiment deals with EPCs. Description: Effects on EPCs in-vitro. Type of experiment: cell-based.

In the case of “SSMKLSFRARAYGFRGPGPQL [WT-CST, catestatin]”, in experiment [1], the “Basal plasma norepinephrine and epinephrine” value is recorded as “returned to WT level”. Also, the “ISO-induced stimulation of LVP (concentration-response)” value in experiment [2] was “significantly inhibited”. In addition, the “Angiogenesis in the cornea” value in the experiment on C57/BL/6J mice cornea is “induced growth of arteries”. In addition, the “Phosphorylation of ERK1/2” value in the experiment with ERK1/2 is listed as “inhibited”. For the same sequence, in experiment [3], the Dampened baroreflex slope result was “restored”. Besides, the “Phosphorylation of GSK-3β at Ser9” value with GSK-3β Ser9 is listed as “inhibited”. The “Effects on EPCs (chemotaxis, incorporation into vascular structures)” value in the experiment on EPCs was “showed effects on EPCs”.
